Reference: PMC1459931, “Assessment of Xenoestrogens Using Three Distinct Estrogen Receptors and the Zebrafish Brain Aromatase Gene in a Highly Responsive Glial Cell System” (Environmental Health Perspectives, 2005)

Key:
Assay in all cases: luciferase reporter transactivation (zebrafish Aro-B promoter) in transfected U251-MG cells
Assay type in all cases: cell-based
Details in all cases: agonist; 48 hr, 37°C, 2% charcoal/dextran FCS
[1] = biological target: T1, zfER-β2 (zebrafish ER-β2) (Danio rerio, UniProt Q7ZU32)
T1 construct: gene esr2a; coding region of receptor cDNA in Topo-pcDNA3 (Menuet et al. 2002), transiently expressed in human U251-MG glial cells; approx. 65 kDa; ER-β2 of Menuet et al. corresponds to esr2a (esr2b is ER-β1)
Excerpt: luciferase reporter transactivation (zebrafish Aro-B promoter) in transfected U251-MG cells on zfER-β2 (zebrafish ER-β2)

[2] = biological target: T2, zfER-β1 (zebrafish ER-β1) (Danio rerio, UniProt Q5PR29)
T2 construct: gene esr2b; coding region of receptor cDNA in Topo-pcDNA3 (Menuet et al. 2002), transiently expressed in human U251-MG glial cells; approx. 65 kDa; ER-β1 of Menuet et al. corresponds to esr2b (esr2a is ER-β2)
T2 sequence (Q5PR29 1-592): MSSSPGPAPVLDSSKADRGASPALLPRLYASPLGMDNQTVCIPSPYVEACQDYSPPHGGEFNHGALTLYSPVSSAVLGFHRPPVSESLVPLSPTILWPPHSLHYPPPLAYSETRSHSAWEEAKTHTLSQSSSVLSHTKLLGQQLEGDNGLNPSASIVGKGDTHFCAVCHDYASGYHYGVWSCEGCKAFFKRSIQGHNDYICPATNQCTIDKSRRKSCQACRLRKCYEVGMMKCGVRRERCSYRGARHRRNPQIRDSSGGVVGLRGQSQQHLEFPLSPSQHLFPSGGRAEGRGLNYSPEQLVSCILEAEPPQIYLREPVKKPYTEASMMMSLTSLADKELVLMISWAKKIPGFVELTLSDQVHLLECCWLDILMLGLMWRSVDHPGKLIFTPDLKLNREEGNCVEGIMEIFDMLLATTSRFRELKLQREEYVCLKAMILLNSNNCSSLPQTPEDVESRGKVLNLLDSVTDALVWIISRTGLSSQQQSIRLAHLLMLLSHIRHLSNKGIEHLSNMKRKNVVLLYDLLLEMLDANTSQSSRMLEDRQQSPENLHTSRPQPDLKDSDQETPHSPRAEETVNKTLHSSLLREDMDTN
Excerpt: luciferase reporter transactivation (zebrafish Aro-B promoter) in transfected U251-MG cells on zfER-β1 (zebrafish ER-β1)

zfER-α (zebrafish ER-α) = biological target: T3, zfER-α (zebrafish ER-α) (Danio rerio, UniProt P57717)
T3 construct: gene esr1; coding region of receptor cDNA in Topo-pcDNA3 (Menuet et al. 2002), transiently expressed in human U251-MG glial cells; approx. 65 kDa in vitro translated
T3 sequence (P57717 1-569): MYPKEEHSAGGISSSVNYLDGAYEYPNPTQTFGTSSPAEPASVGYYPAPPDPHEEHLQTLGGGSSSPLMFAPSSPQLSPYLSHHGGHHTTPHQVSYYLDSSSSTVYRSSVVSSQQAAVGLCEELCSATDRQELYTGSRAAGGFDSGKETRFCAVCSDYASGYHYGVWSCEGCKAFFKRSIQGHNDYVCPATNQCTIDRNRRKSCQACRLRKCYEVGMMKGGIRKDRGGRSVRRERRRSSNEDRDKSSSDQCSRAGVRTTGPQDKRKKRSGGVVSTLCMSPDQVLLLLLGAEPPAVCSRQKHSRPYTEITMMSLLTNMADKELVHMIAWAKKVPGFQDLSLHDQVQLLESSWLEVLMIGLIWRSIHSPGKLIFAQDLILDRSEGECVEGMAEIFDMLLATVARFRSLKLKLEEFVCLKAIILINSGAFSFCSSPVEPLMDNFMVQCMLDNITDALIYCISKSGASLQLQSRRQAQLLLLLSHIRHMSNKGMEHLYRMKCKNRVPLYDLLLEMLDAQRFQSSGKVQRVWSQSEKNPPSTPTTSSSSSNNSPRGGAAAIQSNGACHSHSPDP
Excerpt: luciferase reporter transactivation (zebrafish Aro-B promoter) in transfected U251-MG cells on zfER-α (zebrafish ER-α)

T1 sequence (Q7ZU32 1-553): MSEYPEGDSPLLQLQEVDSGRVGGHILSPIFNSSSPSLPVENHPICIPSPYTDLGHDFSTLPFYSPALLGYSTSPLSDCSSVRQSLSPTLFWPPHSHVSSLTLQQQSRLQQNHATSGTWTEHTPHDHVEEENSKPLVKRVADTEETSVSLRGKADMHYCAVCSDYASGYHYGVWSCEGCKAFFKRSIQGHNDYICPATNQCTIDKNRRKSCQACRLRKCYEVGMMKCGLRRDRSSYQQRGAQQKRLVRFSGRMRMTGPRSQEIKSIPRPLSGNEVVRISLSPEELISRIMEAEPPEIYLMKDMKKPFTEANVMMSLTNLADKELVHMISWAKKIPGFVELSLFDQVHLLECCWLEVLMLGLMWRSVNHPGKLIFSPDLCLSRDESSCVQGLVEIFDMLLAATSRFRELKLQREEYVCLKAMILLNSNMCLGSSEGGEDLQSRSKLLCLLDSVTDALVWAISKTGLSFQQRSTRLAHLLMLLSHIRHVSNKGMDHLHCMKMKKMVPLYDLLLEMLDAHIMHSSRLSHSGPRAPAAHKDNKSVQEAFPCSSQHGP

## C[C@H]1CCC[C@H](O)CCC/C=C/c2cc(O)cc(O)c2C(=O)O1 [α-Zeralenol]
[1]
  EC50: 0.15 nM
[2]
  EC50: 0.11 nM
zfER-α (zebrafish ER-α)
  EC50: 0.59 nM
